Assay results published in the NIST ThermoML archive (doi:10.1007/s10765-007-0151-9).
Where “and” joins values, the source holds several entries; their conditions need not be identical. Identical values can stand only once.

Details: 101.33 kPa, Liquid, Pulse-echo method

[Pb] [lead]
Details	speed of sound [m/s]
610 K	1834
626 K	1810.5
678 K	1790.3
703 K	1784
787 K	1769.8
814 K	1749
897 K	1729.8
1078 K	1688

[Si] [silicon]
Details	speed of sound [m/s]
1723 K	3916.1
1748 K	3929
1755 K	3945.9
1789 K	3973.3
1795 K	3969
1823 K	3976.3
1852 K	4003
1889 K	4020

[Ge] [germanium]
Details	speed of sound
1216 K	2690.9 m/s and 2689.9 m/s
1233 K	2690.8 m/s and 2691.1 m/s
1252 K	2689.5 m/s and 2696.2 m/s
1270 K	2692 m/s and 2695 m/s
1289 K	2690.8 m/s and 2700.4 m/s
1307 K	2690.6 m/s and 2695 m/s
1352 K	2673.6 m/s and 2678.4 m/s
1398 K	2662.8 m/s and 2666.3 m/s
1443 K	2652.5 m/s and 2654.4 m/s

[Sn] [tin]
Details	speed of sound [m/s]
608 K	2470
804 K	2408
814 K	2416
919 K	2379
1012 K	2366
1025 K	2332
1218 K	2306
1453 K	2234
1463 K	2242
